Experimental data reported in paper PMC3923053, “Effects of Various Phytochemicals on Indoleamine 2,3-Dioxygenase 1 Activity: Galanal Is a Novel, Competitive Inhibitor of the Enzyme” (PLoS ONE, 2014).

Molecular target: T1, Indoleamine 2,3-dioxygenase 1 (IDO1) (Homo sapiens, UniProt P14902)
T1 construct: recombinant human IDO1, N-His-tag, expressed in E. coli
Assay: methylene blue/ascorbate assay of purified recombinant IDO1, HPLC; Lineweaver-Burk kinetics
Assay type: biochemical

T1 sequence (P14902 whole entry): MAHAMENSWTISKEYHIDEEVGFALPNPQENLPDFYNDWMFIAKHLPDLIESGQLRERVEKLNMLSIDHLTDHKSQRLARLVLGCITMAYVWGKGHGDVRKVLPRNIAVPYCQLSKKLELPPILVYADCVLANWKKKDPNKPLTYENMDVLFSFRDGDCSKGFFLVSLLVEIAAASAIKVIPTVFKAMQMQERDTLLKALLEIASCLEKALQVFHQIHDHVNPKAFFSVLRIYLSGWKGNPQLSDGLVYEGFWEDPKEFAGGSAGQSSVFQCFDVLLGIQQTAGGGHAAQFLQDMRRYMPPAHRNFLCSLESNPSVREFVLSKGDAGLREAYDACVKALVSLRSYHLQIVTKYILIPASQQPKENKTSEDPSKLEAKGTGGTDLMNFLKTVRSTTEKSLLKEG

## galanal
  IC50: 7.7 µM
